# Source: patent US6448293B1, “Diphenyl ether compounds useful in therapy” (Pfizer Inc., priority 2000, dated 2002)
# Structures can show the parent of a compound that is named as a salt.
# Biological target: T1, human serotonin transporter (hSERT) (Homo sapiens, UniProt P31645)
# T1 construct: expressed in transfected cells; host or cells: HEK-293 (human embryonic kidney cells), stably transfected
# Assay: Inhibition of 3H-Serotonin uptake into HEK-293 cells stably transfected with hSERT
# Type: cell-based
# Conditions: not given
# Procedure: A number of compounds were tested for biological activity by their ability to inhibit the uptake of serotonin by human serotonin transporters as follows.
# Human embryonic kidney cells (HEK-293) stably transfected with either the human serotonin transporter (hSERT), noradrenaline transporter (hNET) or dopamine transporter (hDAT) were cultured under standard cell culture techniques (cells were grown at 37° C and 5% CO2 in DMEM-culture media (supplemented with 10% dialysed foetal calf serum (FCS), 2 mM 1-glutamine and 250 μg/ml geneticin)). Cells were harvested for the assay to yield a cell suspension of 750,000 cells/ml.
# (i) Determination of inhibitor potency
# All test compounds were dissolved in 100% DMSO and diluted down in assay buffer to give appropriate test concentrations. Assays were carried out in 96-well filter bottom plates. Cells (7500 cells/assay well) were pre-incubated in standard assay buffer containing either test compound, standard inhibitor or compound vehicle (1 % DMSO) for 5 minutes. Reactions were started by addition of either ^3H-Serotonin, ^3H-Noradrenaline or ^3H-Dopamine substrates. All reactions were carried out at room temperature in a shaking incubator. Incubation times were 5 minutes for the hSERT and hDAT assays and 15 minutes for the hNET assay. Reactions were terminated by removal of the reaction mixture using a vacuum manifold followed by rapid washing with ice cold assay buffer. The quantity of ^3H-substrate incorporated into the cells was then quantified.
# Assay plates were dried in a microwave oven, scintillation fluid added, and radioactivity measured.
# (iii) Standard Assay Buffer Composition:
# Note: The pH of the buffer was adjusted to 7.40 with 1 M NaOH before addition of CaCI2 and pargyline.
# (iv) Summary of Assay Parameters
# T1 sequence (P31645 whole entry): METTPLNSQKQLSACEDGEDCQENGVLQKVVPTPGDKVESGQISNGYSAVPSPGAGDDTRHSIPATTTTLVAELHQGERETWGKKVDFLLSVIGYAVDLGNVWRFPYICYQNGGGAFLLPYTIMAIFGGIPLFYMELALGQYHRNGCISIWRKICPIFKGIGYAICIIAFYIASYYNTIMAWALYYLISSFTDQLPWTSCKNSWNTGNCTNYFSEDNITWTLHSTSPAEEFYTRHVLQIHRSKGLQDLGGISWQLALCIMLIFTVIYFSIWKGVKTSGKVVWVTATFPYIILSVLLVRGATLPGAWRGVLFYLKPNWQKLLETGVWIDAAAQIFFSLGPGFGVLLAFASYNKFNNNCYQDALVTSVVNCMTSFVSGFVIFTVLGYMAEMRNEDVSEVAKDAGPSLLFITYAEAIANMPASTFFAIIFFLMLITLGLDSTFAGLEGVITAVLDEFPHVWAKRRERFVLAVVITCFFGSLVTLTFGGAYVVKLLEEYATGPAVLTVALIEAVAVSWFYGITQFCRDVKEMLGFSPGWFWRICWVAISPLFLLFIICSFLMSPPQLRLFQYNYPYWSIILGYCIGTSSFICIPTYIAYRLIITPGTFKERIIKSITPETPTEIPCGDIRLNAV
row,SMILES,IC50 [nM]
1,"CNCc1cc(Br)ccc1Oc1ccc(SC)cc1 [Example 23, N-{5-Bromo-2-[4-(methylsulfanyl)phenoxy]benzyl}-N-methylamine]",≤ 50
2,"CSc1ccc(Oc2ccc(NS(=O)(=O)C(F)(F)F)cc2CN(C)C)cc1 [Example 140, N-{3-[(Dimethylamino)methyl]-4-[4-(methylsulfanyl)phenoxy]phenyl}-(trifluoro)methanesulfonamide]",≤ 50
3,"CNCc1cc(-n2ccnn2)ccc1Oc1ccc(SC)cc1 [Example 181, N-Methyl-N-[2-[4-(methylsulfanyl)phenoxy]-5-(1 H-1,2,3-triazol-1-yl)benzyl]amine]",≤ 50
4,"CNCc1cc(-n2nccn2)ccc1Oc1ccc(SC)cc1 [Example 182, N-methyl-N-[2-[4-(methylsulfanyl)phenoxy]-5-(2 H-1,2,3-triazol-2-yl)benzyl]amine]",≤ 50
5,"CSc1ccc(Oc2ccc(-n3nccn3)cc2CN(C)C)cc1 [Example 183, N,N-Dimethyl-N-[2-[4-(methylsulfanyl)phenoxy]-5-(2 H-1,2,3-triazol-2-yl)benzyl]amine]",≤ 50
6,"CNCc1cc(-n2ccnc2)ccc1Oc1ccc(SC)cc1 [Example 185, N-[2-[4-(Methylsulfanyl)phenoxy]-5-(1 H-imidazol-1-yl)benzyl]-N-methylamine]",≤ 50
7,"CNCc1cc(-n2cncn2)ccc1Oc1ccc(SC)cc1 [Example 187, N-Methyl-N-[2-[4-(methylsulfanyl)phenoxy]-5-(1 H-1,2,4-triazol-1-yl)benzyl]amine]",≤ 50
8,"CSc1ccc(Oc2ccc(-n3cnnc3)cc2CN(C)C)cc1 [Example 189, N-[2-[4-(Methylsulfanyl)phenoxy]-5-(4H-1,2,4-triazol-4-yl)benzyl]-N,N-dimethylamine]",≤ 50

# Same assay, conditions: HEK-293 cells transfected with hSERT, 3H-Serotonin uptake, 5 minutes incubation, room temperature; read-out: serotonin re-uptake inhibition (SRI) IC50
row,SMILES,IC50 [nM]
1,CN(C)Cc1cc(Br)ccc1Oc1ccc(C(F)(F)F)cc1 [Example 3],≤ 50
2,CSc1ccc(Oc2ccc(Br)cc2CN(C)C)cc1 [Example 9],≤ 50
3,COc1ccc(Oc2ccc(SC)cc2)c(CN(C)C)c1 [Example 14],≤ 50
4,"CSc1ccc(Oc2ccc(S(N)(=O)=O)cc2CN(C)C)cc1 [Example 28, 3-[(Dimethylamino)methyl]-4-[4-(methylsulfanyl)phenoxy]benzenesulfonamide]",≤ 50
5,CNS(=O)(=O)c1ccc(Oc2ccc(C(F)(F)F)cc2)c(CN(C)C)c1 [Example 30],≤ 50
6,CN(C)Cc1cc(S(N)(=O)=O)ccc1Oc1ccc(OC(F)(F)F)cc1 [Example 36],≤ 50
7,CSc1ccc(Oc2ccc(S(=O)(=O)N[C@@H](C)CO)cc2CN(C)C)cc1 [Example 53],≤ 50
8,"CNCc1cc(O)ccc1Oc1ccc(SC)cc1 [Example 74, 3-[(Methylamino)methyl]-4-[4-(methylsulfanyl)phenoxy]phenol]",≤ 50
9,CN(C)Cc1cc(C#N)ccc1Oc1ccc(OC(F)(F)F)cc1 [Example 84],≤ 50
10,CSc1ccc(Oc2ccc(C#N)cc2CN(C)C)cc1 [Example 85],≤ 50
11,"CNCc1cc(C#N)ccc1Oc1ccc(SC)cc1 [Example 87, 3-[(Methylamino)methyl]-4-[4-(methylsulfanyl)phenoxy]benzonitrile]",≤ 50
12,"CN(C)Cc1ccc(C(N)=O)cc1Oc1ccc(C(F)(F)F)cc1 [Example 90, 4-[(Dimethylamino)methyl]-3-[4-(trifluoromethyl)phenoxy]benzamide]",≤ 50
13,"CSc1ccc(Oc2ccc(C(N)=O)cc2CN(C)C)cc1 [Example 91, 3-[(Dimethylamino)methyl]-4-[4-(methylsulfanyl)phenoxy]benzamide]",≤ 50
14,CN(C)Cc1cc(C(N)=O)ccc1Oc1ccc(OC(F)(F)F)cc1 [Example 94],≤ 50
15,CN(C)Cc1cc(C(N)=O)ccc1Oc1ccc(C(F)(F)F)cc1 [Example 95],≤ 50
16,CNCc1cc(C(N)=O)ccc1Oc1ccc(SC)cc1 [Example 97],≤ 50
17,"CN(C)Cc1ccc(C(N)=O)cc1Oc1ccc(OC(F)(F)F)cc1 [Example 98, 4-[(Dimethylamino)methyl]-3-[4-(trifluoromethoxy)phenoxy]benzamide]",≤ 50
18,CNC(=O)c1ccc(Oc2ccc(OC(F)(F)F)cc2)c(CN(C)C)c1 [Example 101],≤ 50
19,"CN(C)Cc1cc(CN)ccc1Oc1ccc(OC(F)(F)F)cc1 [Example 110, N-{5-(Aminomethyl)-2-[4-(trifluoromethoxy)phenoxy]benzyl}-N,N-dimethylamine]",≤ 50
20,"CN(C)Cc1cc(NS(C)(=O)=O)ccc1Oc1ccc(C(F)(F)F)cc1 [Example 114, N-(3-[(Dimethylamino)methyl]-4-[4-(trifluoromethyl)phenoxy]phenyl} methanesulfonamide]",≤ 50

row,SMILES,IC50 [nM]
1,CN(C)Cc1cc(NS(C)(=O)=O)ccc1Oc1ccc(OC(F)(F)F)cc1 [Example 116],≤ 50
2,CN(C)Cc1cc(CNS(C)(=O)=O)ccc1Oc1ccc(OC(F)(F)F)cc1 [Example 117],≤ 50
3,CN(C)Cc1ccc(CNS(C)(=O)=O)cc1Oc1ccc(OC(F)(F)F)cc1 [Example 120],≤ 50
4,"CNCc1cc(NS(C)(=O)=O)ccc1Oc1ccc(C(F)(F)F)cc1 [Example 121, N-{3-[(Methylamino)methyl]-4-[4-(trifluoromethyl)phenoxy]phenyl}-methanesulfonamide]",≤ 50
5,"CNCc1cc(NS(C)(=O)=O)ccc1Oc1ccc(SC)cc1 [Example 128, N-{3-[(Methylamino)methyl]-4-[4-(methylsulfanyl)phenoxy]phenyl}methanesulfonamide]",≤ 50
6,CNCc1cc(N(CCO)S(C)(=O)=O)ccc1Oc1ccc(SC)cc1 [Example 130],≤ 50
7,CSc1ccc(Oc2ccc(Cl)cc2CN(C)C)cc1 [Example 135],≤ 50
8,"CSc1ccc(Oc2ccc(OC(F)(F)F)cc2)c(CN(C)C)c1 [Example 141, N,N-Dimethyl-N-{5-(methylsulfanyl)-2-[4-(trifluoromethoxy)phenoxy]benzyl}amine]",≤ 50
9,"CN(C)Cc1cc(S(C)(=O)=O)ccc1Oc1ccc(OC(F)(F)F)cc1 [Example 145, N,N-Dimethyl-N-{5-(methylsulfonyl)-2-[4-(trifluoromethoxy)phenoxy]benzyl}amine]",≤ 50
10,CN(C)Cc1cc([S+](C)[O-])ccc1Oc1ccc(C(F)(F)F)cc1 (stereo not shown) [Example 147],≤ 50
11,CC[S+]([O-])c1ccc(CN(C)C)c(Oc2ccc(C(F)(F)F)cc2)c1 (stereo not shown) [Example 148],≤ 50
12,"CNCc1cc(CO)ccc1Oc1ccc(SC)cc1 [Example 156, {3-[(Methylamino)methyl]-4-[4-(methylsulfanyl)phenoxy]phenyl}methanol]",≤ 50
13,CN(C)Cc1cc(CO)ccc1Oc1ccc(OC(F)(F)F)cc1 [Example 157],≤ 50
14,"CNCc1cc(C(N)=O)ccc1Oc1ccc(SC)c(OC)c1 [Example 169, 4-[3-Methoxy-4-(methylsulfanyl)phenoxy]-3-[(methylamino)methyl]benzamide]",≤ 50
15,CNCc1cc(C(=O)NCCOC)ccc1Oc1ccc(SC)cc1 [Example 170],≤ 50
16,CNCc1cc(C(=O)N[C@@H](C)CO)ccc1Oc1ccc(SC)cc1 [Example 174],≤ 50
17,CNCc1cc(C(=O)NC)ccc1Oc1ccc(SC)c(OC)c1 [Example 176],≤ 50
18,"CSc1ccc(Oc2ccc(-n3ccnn3)cc2CN(C)C)cc1 [Example 184, N,N-Dimethyl-N-[2-[4-(methylsulfanyl)phenoxy]-5-(1 H-1,2,3-triazol-1-yl)benzyl]-amine]",≤ 50
19,"CSc1ccc(Oc2ccc(-n3cncn3)cc2CN(C)C)cc1 [Example 188, N,N-dimethyl-N-[2-[4-(methylsulfanyl)phenoxy]-5-(1 H-1,2,4-triazol-1-yl)benzyl]-amine]",≤ 50
20,"CNCc1cc(-n2ccc(N)n2)ccc1Oc1ccc(SC)cc1 [Example 190, N-{5-(3-Amino-1H-pyrazol-1-yl)-2-[4-(methylsulfanyl)phenoxy]benzyl}-N-methylamine]",≤ 50

# System: not given
# Assay: not given
# Conditions: not given
row,SMILES,melting point [°C]
1,"CSc1ccc(Oc2ccc(S(N)(=O)=O)cc2CN(C)C)cc1 (as salt: hydrochloride) [Example 28, 3-[(Dimethylamino)methyl]-4-[4-(methylsulfanyl)phenoxy]benzenesulfonamide]",193 to 194
